Columns and labels:
[1] = biological target: T1, UGT2B17 (Homo sapiens, UniProt O75795); test: Inhibition of recombinant UGT-catalyzed 4-MU glucuronidation; assay type: biochemical; settings: pH 7.4, probe 4-methylumbelliferone (4-MU), 2000 μM, 100 μM compound, 4-MU probe substrate, negative = activation
T1 construct: purchased BD Gentest Corp. (Woburn, MA, USA); host or cells: baculovirus-infected insect cells
T1 sequence (O75795 24-530): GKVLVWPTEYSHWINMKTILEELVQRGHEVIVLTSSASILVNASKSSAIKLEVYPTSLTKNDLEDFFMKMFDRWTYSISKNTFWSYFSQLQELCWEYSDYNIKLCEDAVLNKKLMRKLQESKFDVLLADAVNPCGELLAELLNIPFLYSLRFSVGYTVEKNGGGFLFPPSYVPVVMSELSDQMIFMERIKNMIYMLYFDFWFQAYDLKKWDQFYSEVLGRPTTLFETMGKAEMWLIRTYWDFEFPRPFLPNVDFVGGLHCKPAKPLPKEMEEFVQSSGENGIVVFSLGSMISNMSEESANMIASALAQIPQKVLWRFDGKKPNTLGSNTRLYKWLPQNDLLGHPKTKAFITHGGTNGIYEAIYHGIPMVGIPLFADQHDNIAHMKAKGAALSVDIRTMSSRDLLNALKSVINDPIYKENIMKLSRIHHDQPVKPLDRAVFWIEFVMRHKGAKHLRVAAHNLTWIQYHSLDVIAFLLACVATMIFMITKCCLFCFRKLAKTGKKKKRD
Protocol: (§1) Sigma-Aldrich (St Louis, MO, USA) provided the following constituents in the incubation mixture: 4-methylumbelliferone (4-MU), 4-methylumbelliferone-β-D-glucuronide (4-MUG), Tris-HCl, 7-hydroxycoumarin, and uridine-diphosphoglucuronic acid (UDPGA) (trisodium salt). All other compounds were of high-performance liquid chromatography (HPLC) grade or of the highest grade commercially available. For enzyme sources, recombinant UGT isoforms expressed in baculovirus-infected insect cells were purchased from BD Gentest Corp. (Woburn, MA, USA), including UGT1A1, 1A3, 1A6, 1A7, 1A8, 1A9, 1A10, 2B4, 2B7, 2B15, and 2B17.
(§2) 4-MU, a nonspecific probe substrate for all the UGT isoforms, was employed to investigate the inhibition of MEF and NIR towards the activity of UGT isoforms. The incubation and analytical methods have been previously described. […] MEF and NIR were dissolved in the DMSO to make a stock solution of 20 mM, and various concentrations of working solutions were prepared through dilution with DMSO. 4-MU was used as a non-selective substrate of UGTs. There was a 5-min pre-incubation step at 37 °C before the reaction was initiated by the addition of UDPGA. 4-MU and inhibitors were previously dissolved in DMSO, and the total concentration of DMSO was 1%. The reactions were continued at 37 °C for 120 min for UGT1A1, UGT1A3, UGT1A10, UGT2B4, UGT2B7, UGT2B15 and UGT2B17, 30 min for UGT1A6, UGT1A7, UGT1A8, and UGT1A9, respectively. Reactions were terminated by the addition of 100 μL acetonitrile with 7-hydroxycoumarin (100 μM) as internal standard. The incubation mixtures were then centrifuged at 12,000 r/min for 10 min. 2 μL supernatant was injected into the UPLC system for analysis. An ACQUITY UPLC System (Waters, Milford, MA, USA) equipped with UV detector was used to analyze the samples, and the separation of all the compounds were carried out using a ACQUITY UPLC® BEH C18 (2.1 × 100 mm, 1.7 μm Waters) at a flow rate of 0.2 mL/min and UV detector at 316 nm. The mobile phase was consisted of ultrapure water containing 0.5% formic acid (A) and acetonitrile (B). The following gradient condition was used: 0–3.5 min, 10–65% B; 3.5–4.0 min, 65% B; 4.0–9.0 min, 10% B. To calculate the standard curve 0.1–100 μM of 4-MUG was used through drawing the peak area ration of 4-MUG/internal standard towards the concentration range of 4-MUG. The curve was linear over this concentration range, with an r^2 value > 0.99.
(§3) The inhibition type and Kinetics were determined for the inhibition of NTR towards UGT1A3, UGT1A7 and UGT1A9. The glucuronidation velocity of 4-MU was determined at multiple concentrations of 4-MU and NTR. Dixon and Lineweaver–Burk plots were employed to determine the inhibition type, and the second plot of the slopes from the Lineweaver–Burk plot versus the compound concentrations was utilized to calculate the Ki value. The determination of IC50 was calculated using Probit analysis in SPSS11.5 (SPSS, Chicago, IL, USA). The Student’s t-test was adopted at a significance level of p < 0.05 to determine statistically significant differences among experimental groups.

[2] = biological target: T2, UGT2B7 (Homo sapiens, UniProt P16662); test: as above; assay type: biochemical; settings: pH 7.4, probe 4-methylumbelliferone (4-MU), 350 μM, 100 μM compound, 4-MU probe substrate, negative = activation
T2 construct: purchased BD Gentest Corp. (Woburn, MA, USA); host or cells: baculovirus-infected insect cells
T2 sequence (P16662 24-529): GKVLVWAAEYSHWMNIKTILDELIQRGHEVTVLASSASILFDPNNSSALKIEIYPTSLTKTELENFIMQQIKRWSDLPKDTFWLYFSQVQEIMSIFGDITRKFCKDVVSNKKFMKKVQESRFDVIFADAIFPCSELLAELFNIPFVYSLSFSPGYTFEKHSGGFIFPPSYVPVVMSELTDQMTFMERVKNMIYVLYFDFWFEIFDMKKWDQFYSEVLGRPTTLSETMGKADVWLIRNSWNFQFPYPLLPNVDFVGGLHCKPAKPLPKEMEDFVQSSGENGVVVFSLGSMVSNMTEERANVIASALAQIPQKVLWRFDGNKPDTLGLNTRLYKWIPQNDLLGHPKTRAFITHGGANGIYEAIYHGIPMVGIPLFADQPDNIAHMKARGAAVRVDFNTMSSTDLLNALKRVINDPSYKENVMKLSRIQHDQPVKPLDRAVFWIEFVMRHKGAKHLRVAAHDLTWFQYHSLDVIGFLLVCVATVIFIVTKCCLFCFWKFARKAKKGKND
Protocol: as §1, §2, §3

Structure (SMILES)	inhibition at 120 min, 100 µM [1]	inhibition at 120 min, 100 µM [2]
O=c1c2cc(O)c(O)cc2oc2cc(O)c([C@@H]3O[C@H](CO)[C@@H](O)[C@H](O)[C@H]3O)c(O)c12 [MGF, 1,3,6,7-tetrahydroxyxanthone-C-2-β-D-glucoside]	-106%	-11.2%
O=c1c2cc(O)c(O)cc2oc2cc(O)cc(O)c12 [NTR, 1,3,6,7-tetrahydroxyxanthone]	48.6%	31.8%
